Where two headings read alike, the source gives them in different places.
Target: DCN1 (DCUND1) protein PONY domain (Homo sapiens (Human), UniProt Q96GG9)
Experiment: TR-FRET assay (binding to DCN-1, displacement of FAM-labeled probe)
Outline: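 Compounds read at 1, 5 and 24 h, 0.1% final DMSO, by TR-FRET between terbium-streptavidin on biotinylated DCN1 PONY domain (E. coli) and a FAM-tagged non-covalent inhibitor probe. Two setups used, 5 nM protein with 20 nM labelled probe, or 0.31 nM protein with 100 nM labelled plus 800 nM unlabelled probe; buffer had TritonX and 200 mM NaCl. % activity relative to high (with probe) and low (without probe) controls.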

[1] = 24 hr after treatment with compound, read-out: TR FRET IC50 24 hr
[2] = TR FRET IC50 1 hr (nM), 1 hr after treatment with compound
[3] = read-out: TR FRET IC50 1 hr, 1 hr after treatment with compound

DCN1 (DCUND1) protein PONY domain, sequence (Q96GG9 60-248): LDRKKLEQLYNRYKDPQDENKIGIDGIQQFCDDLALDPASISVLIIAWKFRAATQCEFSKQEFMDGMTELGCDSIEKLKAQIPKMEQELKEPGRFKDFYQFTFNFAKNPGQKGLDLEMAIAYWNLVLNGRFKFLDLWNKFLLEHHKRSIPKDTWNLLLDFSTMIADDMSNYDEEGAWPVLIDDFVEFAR

| Structure (SMILES) | IC50 [1] | IC50 [2] | IC50 [3] |
| --- | --- | --- | --- |
| CCN1C(=O)[C@H](NC(=O)c2cccc(C(F)(F)F)c2)[C@@H](c2cccc(N(C)C(=O)C3=CCC3)c2)c2cnn(-c3ccccc3)c21 [Compound I-91] | 1000 to 3000 nM | 1000 to 3000 nM |  |
| C=C(CN1CCOCC1)C(=O)NCc1cccc([C@H]2c3cnn(-c4ccccc4)c3N(CC)C(=O)[C@@H]2NC(=O)c2cccc(C(F)(F)F)c2)c1 [Compound I-93] | 1000 to 3000 nM | 1000 to 3000 nM |  |
| CCN1C(=O)[C@H](NC(=O)c2cccc(C(F)(F)F)c2)[C@@H](c2cccc(NC(=O)C3=CCC3)c2)c2c(C)nn(-c3ccccc3)c21 [Compound I-94, N-((4S,5R)-4-(3-(cyclobut-1-ene-1-carboxamido)phenyl)-7-ethyl-3-methyl-6-oxo-1-phenyl-4,5,6,7-tetrahydro-1H-pyrazolo[3,4-b]pyridin-5-yl)-3-(trifluoromethyl)benzamide] | 1000 to 3000 nM |  | 1000 to 3000 nM |
| CCN1C(=O)[C@@H](NC(=O)c2cccc(C(F)(F)F)c2)[C@H](c2cccc(CNC(=O)/C(C)=C/C(=O)OC)c2)c2cnn(-c3ccccc3)c21 [Compound I-95] | 1000 to 3000 nM | 1000 to 3000 nM |  |
| C=C(CN1CC(F)(F)C1)C(=O)NCc1cccc([C@H]2c3cnn(-c4ccccc4)c3N(CC)C(=O)[C@@H]2NC(=O)c2cccc(C(F)(F)F)c2)c1 [Compound I-96] | 1000 to 3000 nM | 1000 to 3000 nM |  |
| C=C(CN1CCC(F)(F)C1)C(=O)NCc1cccc([C@H]2c3cnn(-c4ccccc4)c3N(CC)C(=O)[C@@H]2NC(=O)c2cccc(C(F)(F)F)c2)c1 [Compound I-102] | 1000 to 3000 nM | 1000 to 3000 nM |  |
| CCN1C(=O)[C@H](NC(=O)c2cccc(C(F)(F)F)c2)[C@@H](c2cccc(CNC(=O)C3=CCCN(C)C3)c2)c2cnn(-c3ccccc3)c21 [Compound I-106] | 1000 to 3000 nM | 1000 to 3000 nM |  |
| CCN1C(=O)[C@@H](NC(=O)c2cccc(C(F)(F)F)c2)[C@H](c2cccc(CNC(=O)C3=C(C(=O)OC)CCC3)c2)c2cnn(-c3ccccc3)c21 [Compound I-108] | 1000 to 3000 nM | 1000 to 3000 nM |  |
| C=C(CC(=O)NCc1cccc([C@H]2c3cnn(-c4ccccc4)c3N(CC)C(=O)[C@@H]2NC(=O)c2cccc(C(F)(F)F)c2)c1)C(=O)OC [Compound I-109] | 1000 to 3000 nM | 1000 to 3000 nM |  |
| CCN1C(=O)[C@H](NC(=O)c2cccc(C(F)(F)F)c2)[C@@H](c2ccccc2NC(=O)CCl)c2c(C)nn(-c3ccccc3)c21 [Compound I-110, N-((4S,5R)-4-(2-(2-chloroacetamido)phenyl)-7-ethyl-3-methyl-6-oxo-1-phenyl-4,5,6,7-tetrahydro-1H-pyrazolo[3,4-b]pyridin-5-yl)-3-(trifluoromethyl)benzamide] | 1000 to 3000 nM | 1000 to 3000 nM |  |
| C/C=C(\CN1CCOCC1)C(=O)NCc1cccc([C@H]2c3cnn(-c4ccccc4)c3N(CC)C(=O)[C@@H]2NC(=O)c2cccc(C(F)(F)F)c2)c1 [Compound I-115] | 1000 to 3000 nM | 1000 to 3000 nM |  |
| CCN1C(=O)[C@H](NC(=O)c2cccc(C(F)(F)F)c2)[C@@H](c2cccc(CNC(=O)/C=C(\C)C(=O)OC)c2)c2cnn(-c3ccccc3)c21 [Compound I-116] | 1000 to 3000 nM | 1000 to 3000 nM |  |
| CCN1C(=O)[C@H](NC(=O)c2cccc(C(F)(F)F)c2)[C@@H](c2cccc(CNC(=O)C3=C(C(=O)OC)CC3)c2)c2cnn(-c3ccccc3)c21 [Compound I-118] | 1000 to 3000 nM | 1000 to 3000 nM |  |
| CCN1C(=O)[C@H](NC(=O)c2cccc(C(F)(F)F)c2)[C@@H](c2cccc(CNC(=O)C3=C(C(=O)OC)CCC3)c2)c2cnn(-c3ccccc3)c21 [Compound I-119] | 1000 to 3000 nM | 1000 to 3000 nM |  |
| C=C(CC(=O)OC)C(=O)NCc1cccc([C@H]2c3cnn(-c4ccccc4)c3N(CC)C(=O)[C@@H]2NC(=O)c2cccc(C(F)(F)F)c2)c1 [Compound I-121] | 1000 to 3000 nM | 1000 to 3000 nM |  |
| CCN1C(=O)[C@H](NC(=O)c2cccc(C(F)(F)F)c2)[C@@H](c2cccc(CNC(=O)/C(C)=C/C(=O)OC)c2)c2cnn(-c3ccccc3)c21 [Compound I-125] | 1000 to 3000 nM | 1000 to 3000 nM |  |

| Structure (SMILES) | IC50 [1] | IC50 [2] | IC50 [3] |
| --- | --- | --- | --- |
| CCN1C(=O)[C@H](NC(=O)c2cccc(C(F)(F)F)c2)[C@@H](c2cccc(CNC(=O)C3=CCN(C)C3)c2)c2cnn(-c3ccccc3)c21 [Compound I-128] | 1000 to 3000 nM | 1000 to 3000 nM |  |
| C=C(CN1CCN(C2COC2)CC1)C(=O)NCc1cccc([C@H]2c3cnn(-c4ccccc4)c3N(CC)C(=O)[C@@H]2NC(=O)c2cccc(C(F)(F)F)c2)c1 [Compound I-134] | 200 to 1000 nM | 1000 to 3000 nM |  |
| C=C(CN1CC2CCC(C1)O2)C(=O)NCc1cccc([C@@H]2c3cnn(-c4ccccc4)c3N(CC)C(=O)[C@H]2NC(=O)c2cccc(C(F)(F)F)c2)c1 [Compound I-136] | ≤ 200 nM |  | ≤ 200 nM |
| C=C(CN1C[C@@H]2C[C@H]1CO2)C(=O)NCc1cccc([C@@H]2c3cnn(-c4ccccc4)c3N(CC)C(=O)[C@@H]2NC(=O)c2cccc(C(F)(F)F)c2)c1 [Compound I-144] | 200 to 1000 nM | 1000 to 3000 nM |  |
| CCN1C(=O)[C@@H](NC(=O)c2cccc(C(F)(F)F)c2)[C@H](c2cc(F)cc(NC(=O)/C=C/CN(C)C)c2)c2cnn(-c3ccccc3)c21 [Compound I-151] | ≤ 200 nM | 1000 to 3000 nM |  |
| C/C=C(\CN1CCOCC1)C(=O)NCc1cccc([C@@H]2c3cnn(-c4ccccc4)c3N(CC)C(=O)[C@H]2NC(=O)c2cccc(C(F)(F)F)c2)c1 [Compound I-152] | ≤ 200 nM | 1000 to 3000 nM |  |
| C=C(CN(C)C1COC1)C(=O)NCc1cccc([C@H]2c3cnn(-c4ccccc4)c3N(CC)C(=O)[C@@H]2NC(=O)c2cccc(C(F)(F)F)c2)c1 [Compound I-154] | 200 to 1000 nM | 1000 to 3000 nM |  |
| CCN1C(=O)[C@@H](NC(=O)c2cccc(C(F)(F)F)c2)[C@H](c2cccc(CNC(=O)C3=C(C(=O)OC)CC3)c2)c2cnn(-c3ccccc3)c21 [Compound I-155] | ≤ 200 nM | 1000 to 3000 nM |  |
| C=C(CN1CC2(COC2)C1)C(=O)NCc1cccc([C@H]2c3cnn(-c4ccccc4)c3N(CC)C(=O)[C@H]2NC(=O)c2cccc(C(F)(F)F)c2)c1 [Compound I-156] | 200 to 1000 nM | 1000 to 3000 nM |  |
| C=C(COC)C(=O)Nc1cccc([C@H]2c3c(C)nn(-c4ccccc4)c3N(CC)C(=O)[C@@H]2NC(=O)c2cccc(C(F)(F)F)c2)c1 [Compound I-158] | ≤ 200 nM | 1000 to 3000 nM |  |
| C=C(CN1CC2(COC2)C1)C(=O)NCc1cccc([C@@H]2c3cnn(-c4ccccc4)c3N(CC)C(=O)[C@H]2NC(=O)c2nccc(C(F)(F)F)n2)c1 [Compound I-161] | ≤ 200 nM |  | ≤ 200 nM |
| C=C(CN1CCC1)C(=O)NCc1cccc([C@@H]2c3cnn(-c4ccccc4)c3N(CC)C(=O)[C@H]2NC(=O)c2nccc(C(F)(F)F)n2)c1 [Compound I-162] | ≤ 200 nM |  | ≤ 200 nM |
| C=C(CN1CCN(C2COC2)CC1)C(=O)NCc1cccc([C@@H]2c3cnn(-c4ccccc4)c3N(CC)C(=O)[C@H]2NC(=O)c2nccc(C(F)(F)F)n2)c1 [Compound I-163] | ≤ 200 nM |  | ≤ 200 nM |
| C/C=C(\CN1CC2(COC2)C1)C(=O)N(C)Cc1cccc([C@@H]2c3cnn(-c4ccccc4)c3N(CC)C(=O)[C@H]2NC(=O)c2nccc(C(F)(F)F)n2)c1 [Compound I-235] | 1000 to 3000 nM | 1000 to 3000 nM |  |
| C=C(CN1CC2CC1CO2)C(=O)NCc1cccc([C@@H]2c3c(C)nn(-c4ccccc4)c3N(CC)C(=O)[C@H]2NC(=O)c2cccc(C(F)(F)F)c2)c1 (some centres unmarked) [Compound I-236] | ≤ 200 nM |  | ≤ 200 nM |
